Results reported in ChEMBL document CHEMBL3286212, “Synthesis of isoquinolinone-based tricycles as novel poly(ADP-ribose) polymerase-1 (PARP-1) inhibitors” (Bioorg Med Chem Lett, 2014).

Experiments:
[1] = biological target: Poly [ADP-ribose] polymerase 1 (Homo sapiens, UniProt P09874); test: Inhibition of human recombinant PARP-1 after 1 hr by ELISA
[2] = Cytotoxicity against Chinese hamster V79 cells by sulforhodamine B assay; type: cell-based, Cricetulus griseus
[3] = Cytotoxicity against BRCA2-deficient Chinese hamster VC8 cells by sulforhodamine B assay; type: functional; settings: Cricetulus griseus, V-C8
[4] = Cytotoxicity against BRCA1-deficient human MDA-MB-436 cells by sulforhodamine B assay; type: functional

Poly [ADP-ribose] polymerase 1, sequence (P09874 whole entry): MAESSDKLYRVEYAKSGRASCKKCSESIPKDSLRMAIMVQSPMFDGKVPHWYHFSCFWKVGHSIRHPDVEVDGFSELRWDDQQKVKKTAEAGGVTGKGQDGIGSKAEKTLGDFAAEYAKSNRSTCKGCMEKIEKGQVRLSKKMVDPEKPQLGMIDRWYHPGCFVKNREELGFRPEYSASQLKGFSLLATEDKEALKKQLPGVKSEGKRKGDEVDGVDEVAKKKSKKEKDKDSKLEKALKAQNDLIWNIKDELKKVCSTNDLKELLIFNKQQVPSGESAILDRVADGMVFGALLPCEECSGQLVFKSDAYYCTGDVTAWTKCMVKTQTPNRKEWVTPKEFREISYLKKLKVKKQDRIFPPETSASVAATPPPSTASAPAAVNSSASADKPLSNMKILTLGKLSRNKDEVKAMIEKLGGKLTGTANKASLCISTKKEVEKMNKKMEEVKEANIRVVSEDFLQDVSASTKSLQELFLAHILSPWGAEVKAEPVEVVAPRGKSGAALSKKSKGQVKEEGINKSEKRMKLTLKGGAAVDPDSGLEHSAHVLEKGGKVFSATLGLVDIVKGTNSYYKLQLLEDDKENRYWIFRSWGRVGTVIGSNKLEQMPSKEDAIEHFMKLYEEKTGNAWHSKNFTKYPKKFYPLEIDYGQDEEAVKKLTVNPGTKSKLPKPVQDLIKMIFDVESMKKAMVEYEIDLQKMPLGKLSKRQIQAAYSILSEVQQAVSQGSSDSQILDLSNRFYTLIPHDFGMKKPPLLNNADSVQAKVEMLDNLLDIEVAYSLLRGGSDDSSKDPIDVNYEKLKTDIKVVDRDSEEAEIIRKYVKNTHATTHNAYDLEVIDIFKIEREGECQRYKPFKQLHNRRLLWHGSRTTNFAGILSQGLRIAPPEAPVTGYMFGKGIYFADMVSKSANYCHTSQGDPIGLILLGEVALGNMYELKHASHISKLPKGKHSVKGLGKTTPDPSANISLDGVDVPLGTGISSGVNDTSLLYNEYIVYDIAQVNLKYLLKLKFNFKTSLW

Structure (SMILES)	IC50 [1] [µM]	CC50 [2] [µM]	CC50 [3] [µM]	CC50 [4] [µM]
Cc1c(C(=O)N2CC=C(c3ccc(F)cc3)CC2)sc2c1[nH]c(=O)c1ccccc12	0.133	–	–	–
Cn1c(C(=O)N2CCNCC2)cc2[nH]c(=O)c3ccccc3c21	0.044	–	–	–
CN1CCN(C(=O)c2cc3[nH]c(=O)c4ccccc4c3n2C)CC1	0.119	–	–	–
CC(C)N1CCN(C(=O)c2cc3[nH]c(=O)c4ccccc4c3n2C)CC1	0.83	–	–	–
Cn1c(C(=O)N2CCN(Cc3ccccc3)CC2)cc2[nH]c(=O)c3ccccc3c21	0.86	–	–	–
COc1cccc(CN2CCN(C(=O)c3cc4[nH]c(=O)c5ccccc5c4n3C)CC2)c1	0.4	–	–	–
Cn1c(C(=O)N2CCN(Cc3ccc([N+](=O)[O-])cc3)CC2)cc2[nH]c(=O)c3ccccc3c21	> 10	–	–	–
CC(C)S(=O)(=O)N1CCN(C(=O)c2cc3[nH]c(=O)c4ccccc4c3n2C)CC1	0.6	–	–	–
Cn1c(C(=O)N2CCCNCC2)cc2[nH]c(=O)c3ccccc3c21	0.1	> 10	> 10	1.19
CN1CCCN(C(=O)c2cc3[nH]c(=O)c4ccccc4c3n2C)CC1	0.2	–	–	–
CN(C)CCNC(=O)c1cc2[nH]c(=O)c3ccccc3c2n1C	1.1	–	–	–
CN(C)CCCNC(=O)c1cc2[nH]c(=O)c3ccccc3c2n1C	0.3	–	–	–
Cn1c(C(=O)NCCCN2CCOCC2)cc2[nH]c(=O)c3ccccc3c21	0.1	–	–	–
Cn1c(C(=O)N2CCCNCC2)c(Cl)c2[nH]c(=O)c3ccccc3c21	0.1	–	–	–
Cn1c(C(=O)N2CCCNCC2)c(Br)c2[nH]c(=O)c3ccccc3c21	0.1	–	–	–
CN1CCN(C(=O)c2cc3c(n2C)-c2ccccc2C(=O)NC3)CC1	> 10	–	–	–
CN(C)C1CCN(C(=O)c2cc3c(n2C)-c2ccccc2C(=O)NC3)CC1	6.43	–	–	–
Cn1c(C(=O)N2CC=C(c3ccc(F)cc3)CC2)cc2c1-c1ccccc1C(=O)NC2	1.67	–	–	–
CN1CCCN(C(=O)c2cc3c(n2C)-c2ccccc2C(=O)NC3)CC1	10	–	–	–
Cn1c(C(=O)NCCN2CCCC2)cc2c1-c1ccccc1C(=O)NC2	8.17	–	–	–
Cc1c(C(=O)N2CCN(C)CC2)sc2c1[nH]c(=O)c1ccccc12	0.231	–	–	–
CCN1CCN(C(=O)c2sc3c([nH]c(=O)c4ccccc43)c2C)CC1	0.079	> 10	> 10	3.48
Cc1c(C(=O)N2CCN(C(C)C)CC2)sc2c1[nH]c(=O)c1ccccc12	0.086	> 10	> 10	> 10
Cc1c(C(=O)N2CCC(N(C)C)CC2)sc2c1[nH]c(=O)c1ccccc12	0.029	> 10	> 10	> 10
Cc1c(C(=O)NCCN2CCN(C)CC2)sc2c1[nH]c(=O)c1ccccc12	0.284	–	–	–
Cc1c(C(=O)NCCN2CCOCC2)sc2c1[nH]c(=O)c1ccccc12	0.083	–	–	–
Cc1c(C(=O)NCCN2CCCC2)sc2c1[nH]c(=O)c1ccccc12	0.248	–	–	–
O=C(c1cc(Cc2n[nH]c(=O)c3ccccc23)ccc1F)N1CCN(C(=O)C2CC2)CC1 [OLAPARIB]	–	8.98	0.468	0.0169
